From PubChem BioAssay AID1963845 (Molecular Pharmacology Branch, DTP, NCI, 2024)

Tested on: 429239-143-T-J1-PDC complex spheroid viability
Assay: Anticancer human tumor 429239-143-T-J1-PDC patient-derived small cell lung carcinoma cell line growth inhibition [POLQ]
Conditions: for IC50: curve of first compound; for viability, T/C: stronger effect = lower value
Outline: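 PDC + HUVEC + MSC complex spheroids; POLQ inhibitors ± partner drugs; top conc. at/near clinical Cmax, else 10 microM (SN-38 1 microM), half-log dilutions; 37 degrees C, 5% CO2.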

[1] = second compound 0.0316 µM, first compound 0.00316 µM
[2] = second compound 0.0316 µM, first compound 0.01 µM
[3] = second compound 0.0316 µM, first compound 0.0316 µM
[4] = second compound 0.0316 µM, first compound 0.1 µM
[5] = second compound 0.1 µM, first compound 0.00316 µM
[6] = second compound 0.1 µM, first compound 0.01 µM
[7] = second compound 0.1 µM, first compound 0.0316 µM
[8] = second compound 0.1 µM, first compound 0.1 µM
[9] = second compound 0.316 µM, first compound 0.00316 µM
[10] = second compound 0.316 µM, first compound 0.01 µM
[11] = second compound 0.316 µM, first compound 0.0316 µM
[12] = second compound 0.316 µM, first compound 0.1 µM
[13] = second compound 1 µM, first compound 0.00316 µM
[14] = second compound 1 µM, first compound 0.01 µM
[15] = second compound 1 µM, first compound 0.0316 µM
[16] = second compound 1 µM, first compound 0.1 µM
[17] = second compound 3.16 µM, first compound 0.00316 µM
[18] = second compound 3.16 µM, first compound 0.01 µM
[19] = second compound 3.16 µM, first compound 0.0316 µM
[20] = second compound 3.16 µM, first compound 0.1 µM
[21] = second compound 10 µM, first compound 0.00316 µM
[22] = second compound 10 µM, first compound 0.01 µM
[23] = second compound 10 µM, first compound 0.0316 µM
[24] = second compound 10 µM, first compound 0.1 µM
[25] = second compound 0.0316 µM, first compound 0.316 µM
[26] = second compound 0.0316 µM, first compound 1 µM
[27] = second compound 0.1 µM, first compound 0.316 µM
[28] = second compound 0.1 µM, first compound 1 µM
[29] = second compound 0.316 µM, first compound 0.316 µM
[30] = second compound 0.316 µM, first compound 1 µM
[31] = second compound 1 µM, first compound 0.316 µM
[32] = second compound 1 µM, first compound 1 µM
[33] = second compound 3.16 µM, first compound 0.316 µM
[34] = second compound 3.16 µM, first compound 1 µM
[35] = second compound 10 µM, first compound 0.316 µM
[36] = second compound 10 µM, first compound 1 µM
[37] = second compound 0.0316 µM, first compound 3.16 µM
[38] = second compound 0.0316 µM, first compound 10 µM
[39] = second compound 0.1 µM, first compound 3.16 µM
[40] = second compound 0.1 µM, first compound 10 µM
[41] = second compound 0.316 µM, first compound 3.16 µM
[42] = second compound 0.316 µM, first compound 10 µM
[43] = second compound 1 µM, first compound 3.16 µM
[44] = second compound 1 µM, first compound 10 µM
[45] = second compound 3.16 µM, first compound 3.16 µM
[46] = second compound 3.16 µM, first compound 10 µM
[47] = second compound 10 µM, first compound 3.16 µM
[48] = second compound 10 µM, first compound 10 µM
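Also: luminescence signal used as surrogate measure of viable cells; spheroids exposed to compounds for seven days before readout.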
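For viability, T/C in this document: 100% = DMSO vehicle control viability as luminescence relative to vehicle.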

`CC[C@@]1(O)C(=O)OCc2c1cc1n(c2=O)Cc2cc3c(CN(C)C)c(O)ccc3nc2-1` + Nc1ccc(C#CCN(C(=O)Cc2ncc(C(F)(F)F)cc2C(F)(F)F)c2ccc(F)cc2)nn1 was tested, and the IC50 (second compound 0.0316 µM) was 16.9 nM, the IC50 (second compound 0.1 µM) was 17.3 nM and the IC50 (second compound 0.316 µM) was 17.9 nM. It also gave an IC50 (second compound 1 µM) of 16.7 nM, an IC50 (second compound 3.16 µM) of 17.7 nM and an IC50 (second compound 10 µM) of 17.7 nM. The viability, T/C (second compound 0.0316 µM, first compound 0.000316 µM) was 95.7%, the viability, T/C (second compound 0.0316 µM, first compound 0.001 µM) was 103% and the viability, T/C [1] was 106%. For the same compound, the viability, T/C [2] was 84.2%, the viability, T/C [3] was 9.5% and the viability, T/C [4] was 5.15%. For the same compound, the viability, T/C (second compound 0.1 µM, first compound 0.000316 µM) was 103%, the viability, T/C (second compound 0.1 µM, first compound 0.001 µM) was 95.5% and the viability, T/C [5] was 103%. The viability, T/C [6] was 86.9%, the viability, T/C [7] was 9.05% and the viability, T/C [8] was 5.15%. It also gave a viability, T/C (second compound 0.316 µM, first compound 0.000316 µM) of 101%, a viability, T/C (second compound 0.316 µM, first compound 0.001 µM) of 106% and a viability, T/C [9] of 96.5%. The viability, T/C [10] was 92.5%, the viability, T/C [11] was 7.36% and the viability, T/C [12] was 9.85%. It also gave a viability, T/C (second compound 1 µM, first compound 0.000316 µM) of 107%, a viability, T/C (second compound 1 µM, first compound 0.001 µM) of 100% and a viability, T/C [13] of 99.6%. The viability, T/C [14] was 82.9%, the viability, T/C [15] was 8.94% and the viability, T/C [16] was 5.82%. The viability, T/C (second compound 3.16 µM, first compound 0.000316 µM) was 101%, the viability, T/C (second compound 3.16 µM, first compound 0.001 µM) was 98% and the viability, T/C [17] was 99.8%. It also gave a viability, T/C [18] of 89.3%, a viability, T/C [19] of 9.67% and a viability, T/C [20] of 5.18%. For the same compound, the viability, T/C (second compound 10 µM, first compound 0.000316 µM) was 104%, the viability, T/C (second compound 10 µM, first compound 0.001 µM) was 103% and the viability, T/C [21] was 93.5%. For the same compound, the viability, T/C [22] was 87.8%, the viability, T/C [23] was 11.9% and the viability, T/C [24] was 7.53%.

Compound `CCc1c2c(nc3ccc(O)cc13)-c1cc3c(c(=O)n1C2)COC(=O)[C@]3(O)CC` + Nc1ccc(C#CCN(C(=O)Cc2ncc(C(F)(F)F)cc2C(F)(F)F)c2ccc(F)cc2)nn1 has an IC50 (second compound 0.0316 µM) of less than 3.16 nM, an IC50 (second compound 0.1 µM) of less than 3.16 nM and an IC50 (second compound 0.316 µM) of less than 3.16 nM. The IC50 (second compound 1 µM) was less than 3.16 nM, the IC50 (second compound 3.16 µM) was less than 3.16 nM and the IC50 (second compound 10 µM) was less than 3.16 nM. It also gave a viability, T/C [1] of 12%, a viability, T/C [2] of 8.29% and a viability, T/C [3] of 7.72%. It also gave a viability, T/C [4] of 6.64%, a viability, T/C [25] of 4.44% and a viability, T/C [26] of 1.99%. The viability, T/C [5] was 10.2%, the viability, T/C [6] was 7.32% and the viability, T/C [7] was 7.97%. The viability, T/C [8] was 6.96%, the viability, T/C [27] was 4.07% and the viability, T/C [28] was 3.28%. It also gave a viability, T/C [9] of 8.87%, a viability, T/C [10] of 7.47% and a viability, T/C [11] of 6.42%. The viability, T/C [12] was 7.02%, the viability, T/C [29] was 6% and the viability, T/C [30] was 3.04%. For the same compound, the viability, T/C [13] was 8.25%, the viability, T/C [14] was 8.49% and the viability, T/C [15] was 7.35%. The viability, T/C [16] was 7.22%, the viability, T/C [31] was 4.56% and the viability, T/C [32] was 1.52%. The viability, T/C [17] was 8.61%, the viability, T/C [18] was 7.3% and the viability, T/C [19] was 8.79%. It also gave a viability, T/C [20] of 8.33%, a viability, T/C [33] of 4.53% and a viability, T/C [34] of 2.41%. For the same compound, the viability, T/C [21] was 6.48%, the viability, T/C [22] was 7.39% and the viability, T/C [23] was 8.55%. It also gave a viability, T/C [24] of 6.94%, a viability, T/C [35] of 4.47% and a viability, T/C [36] of 1.68%.

`Nc1ccn(C2OC(CO)C(O)C2(F)F)c(=O)n1` (stereo not drawn) + Nc1ccc(C#CCN(C(=O)Cc2ncc(C(F)(F)F)cc2C(F)(F)F)c2ccc(F)cc2)nn1 gave an IC50 (second compound 0.0316 µM) of 49.4 nM, an IC50 (second compound 0.1 µM) of 49.9 nM and an IC50 (second compound 0.316 µM) of 48.3 nM. The IC50 (second compound 1 µM) was 46.2 nM, the IC50 (second compound 3.16 µM) was 47.6 nM and the IC50 (second compound 10 µM) was 50.6 nM. It also gave a viability, T/C [3] of 77.1%, a viability, T/C [4] of 7.33% and a viability, T/C [25] of 5.99%. For the same compound, the viability, T/C [26] was 6.45%, the viability, T/C [37] was 6.94% and the viability, T/C [38] was 6.48%. The viability, T/C [7] was 77.7%, the viability, T/C [8] was 7.8% and the viability, T/C [27] was 7.04%. The viability, T/C [28] was 5.04%, the viability, T/C [39] was 8.53% and the viability, T/C [40] was 6.25%. For the same compound, the viability, T/C [11] was 75%, the viability, T/C [12] was 7.13% and the viability, T/C [29] was 7.6%. It also gave a viability, T/C [30] of 6.15%, a viability, T/C [41] of 6.48% and a viability, T/C [42] of 7.03%. The viability, T/C [15] was 70.9%, the viability, T/C [16] was 7.27% and the viability, T/C [31] was 7.19%. The viability, T/C [32] was 7.47%, the viability, T/C [43] was 6.86% and the viability, T/C [44] was 6.1%. The viability, T/C [19] was 73.6%, the viability, T/C [20] was 7.11% and the viability, T/C [33] was 6.48%. The viability, T/C [34] was 5.97%, the viability, T/C [45] was 6.64% and the viability, T/C [46] was 8.77%. The viability, T/C [23] was 78%, the viability, T/C [24] was 9.42% and the viability, T/C [35] was 7.4%. For the same compound, the viability, T/C [36] was 7.48%, the viability, T/C [47] was 6.25% and the viability, T/C [48] was 7%.

Work on `O=c1[nH]cc(F)c(=O)[nH]1` + Nc1ccc(C#CCN(C(=O)Cc2ncc(C(F)(F)F)cc2C(F)(F)F)c2ccc(F)cc2)nn1 yielded an IC50 (second compound 0.0316 µM) of 3240 nM, an IC50 (second compound 0.1 µM) of 3290 nM and an IC50 (second compound 0.316 µM) of 4050 nM. For the same compound, the IC50 (second compound 1 µM) was 4130 nM, the IC50 (second compound 3.16 µM) was 2530 nM and the IC50 (second compound 10 µM) was 3170 nM. For the same compound, the viability, T/C [3] was 98.3%, the viability, T/C [4] was 105% and the viability, T/C [25] was 96.6%. The viability, T/C [26] was 80.8%, the viability, T/C [37] was 50.7% and the viability, T/C [38] was 31.6%. For the same compound, the viability, T/C [7] was 107%, the viability, T/C [8] was 105% and the viability, T/C [27] was 104%. It also gave a viability, T/C [28] of 81%, a viability, T/C [39] of 51.5% and a viability, T/C [40] of 35.2%. For the same compound, the viability, T/C [11] was 100%, the viability, T/C [12] was 110% and the viability, T/C [29] was 104%. For the same compound, the viability, T/C [30] was 82.8%, the viability, T/C [41] was 56.7% and the viability, T/C [42] was 30.7%. It also gave a viability, T/C [15] of 115%, a viability, T/C [16] of 99.7% and a viability, T/C [31] of 105%. The viability, T/C [32] was 77.9%, the viability, T/C [43] was 56.3% and the viability, T/C [44] was 31.5%. For the same compound, the viability, T/C [19] was 98.1%, the viability, T/C [20] was 105% and the viability, T/C [33] was 102%. It also gave a viability, T/C [34] of 80.2%, a viability, T/C [45] of 43.3% and a viability, T/C [46] of 32.1%. It also gave a viability, T/C [23] of 104%, a viability, T/C [24] of 97.6% and a viability, T/C [35] of 106%. It also gave a viability, T/C [36] of 83.1%, a viability, T/C [47] of 51.1% and a viability, T/C [48] of 34.1%.
